Reference: PubChem BioAssay (NCI)
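Assay format: 96-well plates, 48-hour exposure. TGI: total growth inhibition.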

What was measured:
Assay in all cases: DTP human tumour cell line panel, 48 h
[1] = test system: MDA-MB-435
[2] = test system: SNB-19 CNS
[3] = test system: HCC-2998 colon
[4] = test system: HOP-92 NSCLC
[5] = test system: OVCAR-3 ovarian
[6] = test system: HS 578T breast
[7] = test system: RXF 393 renal
[8] = test system: SK-OV-3 ovarian
[9] = test system: SK-MEL-5 melanoma
[10] = test system: HOP-62 NSCLC
[11] = test system: NCI/ADR-RES ovarian
[12] = test system: COLO 205 colon
[13] = test system: EKVX NSCLC
[14] = test system: SK-MEL-2 melanoma
[15] = test system: SN12C renal
[16] = test system: SNB-75 CNS
[17] = test system: UO-31 renal
[18] = test system: HCT-15 colon
[19] = test system: OVCAR-8 ovarian
[20] = test system: M14 melanoma
[21] = test system: 786-0 renal
[22] = test system: SK-MEL-28 melanoma
[23] = test system: HCT-116 colon
[24] = test system: SR leukemia
[25] = test system: OVCAR-4 ovarian
[26] = test system: MDA-MB-231 breast
[27] = test system: A498 renal
[28] = test system: PC-3 prostate
[29] = test system: CCRF-CEM leukemia
[30] = test system: HT29 colon
[31] = test system: MOLT-4 leukemia
[32] = test system: UACC-257 melanoma
[33] = test system: NCI-H23 lung
[34] = test system: NCI-H522 lung
[35] = test system: UACC-62 melanoma
[36] = test system: RPMI-8226 leukemia
[37] = test system: NCI-H226 lung
[38] = test system: SF-268 CNS
[39] = test system: HL-60(TB) leukemia
[40] = test system: MDA-N
[41] = test system: T-47D breast
[42] = test system: BT-549 breast
[43] = test system: CAKI-1 renal
[44] = test system: A549 NSCLC
[45] = test system: OVCAR-5 ovarian
[46] = test system: DU-145 prostate
[47] = test system: KM12 colon
[48] = test system: U251 CNS
[49] = test system: SF-295 CNS
[50] = test system: ACHN renal
[51] = test system: IGROV1 ovarian
[52] = test system: K-562 leukemia
[53] = test system: MCF7 breast
[54] = test system: LOX IMVI melanoma
[55] = test system: TK-10 renal
[56] = test system: SW-620 colon
[57] = test system: NCI-H460 lung
[58] = test system: SF-539 CNS
[59] = test system: MALME-3M melanoma

O=C1OC(c2ccccc2)=N/C1=C\c1ccc(Cl)cc1
TGI [1]: > 100 µM
TGI [2]: > 100 µM
TGI [3]: > 100 µM
TGI [4]: > 100 µM
TGI [5]: > 100 µM
TGI [6]: > 100 µM
TGI [7]: > 100 µM
TGI [8]: > 100 µM
TGI [9]: > 100 µM
TGI [10]: > 100 µM
TGI [11]: > 100 µM
TGI [12]: > 100 µM
TGI [13]: > 100 µM
TGI [14]: > 100 µM
TGI [15]: > 100 µM
TGI [16]: > 100 µM
TGI [17]: > 100 µM
TGI [18]: > 100 µM
TGI [19]: > 100 µM
TGI [20]: > 100 µM
TGI [21]: > 100 µM
TGI [22]: > 100 µM
TGI [23]: > 100 µM
TGI [24]: > 100 µM
TGI [25]: > 100 µM
TGI [26]: > 100 µM
TGI [27]: > 100 µM
TGI [28]: > 100 µM
TGI [29]: > 100 µM
TGI [30]: > 100 µM
TGI [31]: > 100 µM
TGI [32]: > 100 µM
TGI [33]: > 100 µM
TGI [34]: > 100 µM
TGI [35]: > 100 µM
TGI [36]: > 100 µM
TGI [37]: > 100 µM
TGI [38]: > 100 µM
TGI [39]: > 100000 nM
TGI [40]: > 100 µM
TGI [41]: > 100 µM
TGI [42]: > 100 µM
TGI [43]: > 100 µM
TGI [44]: > 100 µM
TGI [45]: > 100 µM
TGI [46]: > 100 µM
TGI [47]: > 100 µM
TGI [48]: > 100 µM
TGI [49]: > 100 µM
TGI [50]: > 100 µM
TGI [51]: > 100 µM
TGI [52]: > 100 µM
TGI [53]: > 100 µM
TGI [54]: > 100 µM
TGI [55]: > 100 µM
TGI [56]: > 100 µM
TGI [57]: > 100 µM

C=CCN1CN(C2CCCCC2)CSC1=S
TGI [1]: 12.2 µM
TGI [2]: > 100 µM
TGI [3]: 21.1 µM
TGI [4]: 39.3 µM
TGI [5]: 29.6 µM
TGI [6]: 18.4 µM
TGI [7]: 18.7 µM
TGI [8]: > 44.1 µM
TGI [9]: 14.2 µM
TGI [10]: > 40.7 µM
TGI [11]: > 95.5 µM
TGI [12]: 14.3 µM
TGI [13]: 37.2 µM
TGI [14]: 26.9 µM
TGI [15]: 27.1 µM
TGI [16]: 25.7 µM
TGI [17]: 24 µM
TGI [18]: > 45.7 µM
TGI [19]: 40.8 µM
TGI [20]: 17.8 µM
TGI [21]: 18.8 µM
TGI [22]: 38.5 µM
TGI [23]: 25.1 µM
TGI [24]: 3.15 µM
TGI [25]: 27.4 µM
TGI [26]: 43.6 µM
TGI [27]: 33.2 µM
TGI [28]: 28 µM
TGI [30]: 17 µM
TGI [31]: > 22.5 µM
TGI [32]: 30 µM
TGI [33]: 40.5 µM
TGI [34]: 17.1 µM
TGI [35]: 22.1 µM
TGI [36]: > 34.4 µM
TGI [37]: 42.8 µM
TGI [38]: 11.8 µM
TGI [39]: 655 nM
TGI [40]: 21.7 µM
TGI [41]: 30.4 µM
TGI [42]: > 80.3 µM
TGI [43]: 24 µM
TGI [44]: > 65.7 µM
TGI [58]: 8.04 µM
TGI [45]: 27.6 µM
TGI [46]: > 26.4 µM
TGI [47]: 18 µM
TGI [59]: 18.7 µM
TGI [48]: 15.7 µM
TGI [49]: > 81.5 µM
TGI [50]: 17.5 µM
TGI [51]: 31.4 µM
TGI [52]: > 45.7 µM
TGI [53]: 9.11 µM
TGI [54]: 27 µM
TGI [55]: 27 µM
TGI [56]: 24.3 µM
TGI [57]: 29.8 µM
